Tests used:
Type in all cases: cell-based
Conditions in all cases: after 10, 20, 40 and 60 minutes at all dilutions 1:100, 1:200, 1:400, and 1:800
Staphylococcus aureus = experiment: Antimicrobial activity by agar dilution, St. Aereus
Description: (§1) The antibacterial properties of the synthesized compound (pyridino-2,16-dioxapentacyclo[7.7.5.0^1,21.0^3,8.0^10,15]henicosa3(8),10,12,14-tetraene-7,20-dione) were studied by the method of agar dilution. Test solutions of each compound was prepared in concentration of 1% using dimethylformamide as a solvent. Then they were diluted in physiological solution to obtain the final experimental dilutions of 1:100, 1:200, 1:400, and 1:800. The effect of these substances were compared with furacillin in a controllable study. The testing microbes used were gram positive bacteria Staphylococcus aureus, gram negative bacteria Pseudomonas aeruginosa, Escherichia coli, and Candida albicans fungus. The experiments used for this survey were meat-pentonlu agar (EPA) for cultivation of bacteria and Saburo environment for fungi. Each experiment used 1 mL of test solution on each plate for 500 minutes. Two drops of emulsified with microbes feel were added. All experimental samples were taken from the agar after 10, 20, 40, 60 minutes in the environment on the basis of Patrk planted. Bacteria were cultivated at a temperature of 37° C. for 1 day and the mushroom was kept in a thermostat for […] at a temperature of 28° C. Then results were checked. Those of control and the antimicrobial activity for the synthesized compounds are listed in Table 1 below, with furacillin serving as a reference.

Escherichia coli = experiment: Antimicrobial activity by agar dilution, E. Coli
Description: as §1

Pseudomonas aeruginosa = experiment: Antimicrobial activity by agar dilution, Ps. aeruginosa
Description: as §1

Candida albicans = experiment: Antimicrobial activity by agar dilution, Candida albicans
Description: as §1

O=C1CCCC2=C1C1c3cccnc3OC3(CCCC(=O)C13)O2 (stereo not shown) [pyridino-2,16-dioxapentacyclo[7.7.5.0^1,21.0^3,8.0^10,15]henicosa3(8),10,12,14-tetraene-7,20-dione]
higher inhibition activity: inhibition activity compared with Furacilin, Staphylococcus aureus (Staphylococcus aureus) | inhibition activity compared with Furacilin, Escherichia coli (Escherichia coli) | inhibition activity compared with Furacilin, Pseudomonas aeruginosa (Pseudomonas aeruginosa) | inhibition activity compared with Furacilin, Candida albicans (Candida albicans)
